Experimental data taken from article PMC6272861, “In Vitro Inhibition of Human UDP-Glucuronosyl-Transferase (UGT) Isoforms by Astaxanthin, β-Cryptoxanthin, Canthaxanthin, Lutein, and Zeaxanthin: Prediction of in Vivo Dietary Supplement-Drug Interactions” (Molecules, 2016).
Like-named read-outs stand apart in the source and are kept apart here.

How the values were obtained:
UGT1A9 = target: T1, UGT1A9 (Homo sapiens, UniProt O60656); assay: Inhibition of UGT1A9 (propofol-O-glucuronidation) in human liver microsomes; details: for Residual UGT1A9 enzyme activity: highest tested concentration 50 μM
T1 sequence (O60656 26-530): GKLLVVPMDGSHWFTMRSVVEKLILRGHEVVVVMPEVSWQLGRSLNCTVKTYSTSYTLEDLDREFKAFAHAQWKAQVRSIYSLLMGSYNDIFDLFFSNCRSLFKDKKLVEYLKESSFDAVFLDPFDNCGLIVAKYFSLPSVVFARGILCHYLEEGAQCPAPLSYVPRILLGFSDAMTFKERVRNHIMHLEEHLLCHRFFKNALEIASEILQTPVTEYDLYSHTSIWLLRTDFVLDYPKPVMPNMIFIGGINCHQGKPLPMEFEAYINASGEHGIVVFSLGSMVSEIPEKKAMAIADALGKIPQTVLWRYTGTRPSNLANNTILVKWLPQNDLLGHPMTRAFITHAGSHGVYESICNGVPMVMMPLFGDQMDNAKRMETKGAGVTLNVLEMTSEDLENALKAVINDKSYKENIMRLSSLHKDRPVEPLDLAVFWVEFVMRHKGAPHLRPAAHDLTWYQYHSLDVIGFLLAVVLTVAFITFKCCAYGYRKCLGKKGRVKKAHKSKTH
Protocol: The formation activities of β-estradiol-3-glucuronide, chenodeoxycholic acid 24-acyl-β-D-glucuronide, trifluoperazine-N-glucuronide, imipramine-N-β-D-glucuronide, serotonin-O-glucuronide, propofol-O-glucuronide, and zidovudine-5′-glucuronide were determined to probe the activities of UGT1A1, UGT1A3, UGT1A4, UGT1A6, UGT1A9 and UGT2B7, respectively, in human liver microsomes.
In brief, the 90-µL incubation mixture, including pooled human liver microsomes (final concentration 0.25 mg/mL), 100 mM Tris buffer, 25 µg/mL alamethicin, 5 mM MgCl2, the UGT-selective substrates, and five xanthophylls (0–50 μM), were pre-incubated for 30 min on ice to allow formation of alamethicin pores. Reac2345tions were initiated by the addition of 10 μL of UDPGA (5 mM) to a final reaction volume of 0.1 mL and incubated at 37 °C for 60 min (except 30 min for UGT1A9) in a shaking water bath. After incubation, each reaction was stopped by adding 50 μL of ice-cold acetonitrile containing chlorpropamide (300 ng/mL) or theophylline (30 μg/mL or 300 μg/mL) as an internal standard. The mixtures were then centrifuged (13,000 g for 15 min at 4 °C) and 5-µL aliquots of the supernatants were injected into an LC-MS/MS system. […] All incubations were performed in triplicate, and mean values were used for analysis.
Chromatographic separations were performed on an Agilent Poroshell 120 EC-C18 column (50 mm × 4.6-mm i.d.; 2.7-μm particle size; Agilent Technologies) to quantify β-estradiol-3-glucuronide (UGT1A1), chenodeoxycholic acid 24-acyl-β-D-glucuronide (UGT1A3), trifluoperazine-N-glucuronide (UGT1A4), propofol-O-glucuronide (UGT1A9), zidovudine-5′-glucuronide (UGT2B7), and 4-methylumbelliferyl glucuronide (UGT2B15); an Agilent Poroshell 120 EC-C18 column (100 × 4.6-mm i.d.; 2.7-mm particle size) was used for quantification of serotonin-O-glucuronide (UGT1A6). The isocratic mobile phase consisted of distilled water (A) and acetonitrile containing 0.1% formic acid (B) at a ratio (v/v) of 10:90 for chenodeoxycholic acid 24-acyl-β-D-glucuronide, 30:70 for trifluoperazine-N-glucuronide and zidovudine-5′-glucuronide, 50:50 for propofol-O-glucuronide and 4-methylumbelliferyl glucuronide, 65:35 for β-estradiol-3-glucuronide, and 90:10 for serotonin-O-glucuronide, at a flow rate of 0.5 mL/min. The total run time was 4.0 min per sample for each metabolite, with the exception of serotonin-O-glucuronide (6.0 min). Peak areas for all of the analytes were automatically integrated using Analyst software (version 1.5.2, Applied Biosystems, Foster City, CA, USA).
The IC50 values were calculated via nonlinear least-squares regression analysis from plots of the logarithms of inhibitor concentration vs. the residual percentages of activities after inhibition, using WinNonlin (ver. 4.0; Pharsight, Mountain View, CA, USA).

UGT2B15 = target: T2, UGT2B15 (Homo sapiens, UniProt P54855); assay: Inhibition of UGT2B15 (4-methylumbelliferyl glucuronidation) in recombinant human UGT2B15 supersomes; type: in vitro ADME
T2 construct: purchased Corning Life Sciences
T2 sequence (P54855 24-530): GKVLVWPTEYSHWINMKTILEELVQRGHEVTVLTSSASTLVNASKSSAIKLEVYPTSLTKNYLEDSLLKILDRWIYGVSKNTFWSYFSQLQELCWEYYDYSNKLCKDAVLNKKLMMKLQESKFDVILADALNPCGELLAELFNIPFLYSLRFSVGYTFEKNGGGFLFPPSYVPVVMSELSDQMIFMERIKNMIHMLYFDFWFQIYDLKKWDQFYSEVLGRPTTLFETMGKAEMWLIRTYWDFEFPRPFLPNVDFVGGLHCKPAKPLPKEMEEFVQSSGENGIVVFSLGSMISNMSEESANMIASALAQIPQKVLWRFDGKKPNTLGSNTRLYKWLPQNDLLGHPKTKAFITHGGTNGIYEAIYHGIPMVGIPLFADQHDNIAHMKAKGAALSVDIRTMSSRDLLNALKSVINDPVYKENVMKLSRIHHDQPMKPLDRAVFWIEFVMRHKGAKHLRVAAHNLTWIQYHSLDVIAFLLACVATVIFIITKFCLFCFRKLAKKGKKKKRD
Protocol: Although S-oxazepam is a typical substrate of UGT2B15 of human liver microsomes, authentic S-oxazepam and the corresponding glucuronide are not commercially […]. Thus, the inhibition of AS, βC, CA, LU, and ZE on the UGT2B15 activity was assessed using 4-methylumbelliferone as the nonspecific probe substrate for all UGTs except UGT1A4 [34] in recombinant human UGT2B15 supersomes.
The reaction was initiated by addition of 10 µL 5 mM UDPGA (to 100 µL total volume) followed by incubation for 120 min at 37 °C in a shaking water bath. Reactions were stopped by addition of 50 µL of ice-cold acetonitrile containing chlorpropamide (300 ng/mL) as an internal standard, and they were chilled and centrifuged (13,000 g, 15 min, 4 °C). An aliquot of 5 μL of supernatant was injected into an LC-MS/MS system. Additionally, identical parallel incubation samples containing a known UGT2B15 inhibitor amitriptyine (0–200 μM) was included as a positive control for UGT2B15.
(§1) For visual inspection, data were presented as Dixon plots.

UGT1A1 [1] = target: T3, UGT1A1 (Homo sapiens, UniProt P22309); assay: Prediction of in vivo drug interaction via UGT1A1 inhibition (AUCi/AUC = 1 + [I]in vivo/Ki); parameters: pooled human liver microsomes (final concentration 0.25 mg/mL); tissue Corning Life Sciences; host or cells: pooled human liver microsomes, 150 donors
T3 sequence (P22309 26-533): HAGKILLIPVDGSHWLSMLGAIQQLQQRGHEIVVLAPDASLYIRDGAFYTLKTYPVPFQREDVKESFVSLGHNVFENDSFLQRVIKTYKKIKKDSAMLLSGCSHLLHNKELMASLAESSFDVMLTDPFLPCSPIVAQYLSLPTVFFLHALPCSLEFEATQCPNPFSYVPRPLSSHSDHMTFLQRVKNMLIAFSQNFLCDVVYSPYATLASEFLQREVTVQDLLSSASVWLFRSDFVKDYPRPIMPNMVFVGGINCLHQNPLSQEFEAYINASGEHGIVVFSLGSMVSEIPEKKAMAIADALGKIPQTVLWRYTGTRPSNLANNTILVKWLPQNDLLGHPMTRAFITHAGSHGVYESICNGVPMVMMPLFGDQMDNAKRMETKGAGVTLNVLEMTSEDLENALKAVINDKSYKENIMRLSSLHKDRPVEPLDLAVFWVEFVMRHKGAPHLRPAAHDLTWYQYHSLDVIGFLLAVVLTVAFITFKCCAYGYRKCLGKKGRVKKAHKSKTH
From the text: As far as we know, for reversible inhibitors, the magnitude of the drug-drug interaction is affected by both the in vitro inhibition constant (Ki) and the in vivo inhibitor concentration. […] In this study, the maximum plasma concentration (Cmax) of βC was used as the [I]in vivo value, and the fraction metabolized by the UGT1A1 of the co-administrated drug was supposed to be 1.

[2] = parameters: method as in PMID 13129448; details: healthy subjects, single-dose carotenoid supplement containing 1.3 mg of esterified βC, oral; read-out: mean Cmax (maximum plasma concentration); cited from earlier work
UGT1A1 [3] = target: T3, UGT1A1; assay: Ki determination on UGT1A1 activity (β-estradiol-3-glucuronidation) in human liver microsomes
Protocol: Based on the lowest IC50 value, the inhibitor constant (Ki) values of the βC for UGT1A1 were determined. […] All incubations were performed in triplicate, and the mean values were used for the analysis. Other procedures were similar to those of the reversible inhibition studies.
as §1

[4] = read-out: IC50 towards UGT1A9, human liver microsomes, 100 μM propofol, mean ± SD of triplicate
[5] = recombinant UGT2B15 supersomes, 250 μM 4-methylumbelliferone, mean ± SD of triplicate, read-out: IC50 towards UGT2B15

SMILES | IC50 (UGT1A9) [µM] | Residual UGT1A9 enzyme activity (UGT1A9; human liver microsomes) | IC50 (UGT2B15) [µM] | IC50 (UGT1A9; [4]) [µM] | IC50 (UGT2B15; [5]) [µM] | other results
CC1=C(/C=C/C(C)=C/C=C/C(C)=C/C=C/C=C(C)/C=C/C=C(C)/C=C/C2=C(C)C(=O)[C@@H](O)CC2(C)C)C(C)(C)C[C@H](O)C1=O [AS, astaxanthin] | > 50 | greater than 80% | > 50 | – | – | –
CC1=C(/C=C/C(C)=C/C=C/C(C)=C/C=C/C=C(C)/C=C/C=C(C)/C=C/C2=C(C)C(=O)CCC2(C)C)C(C)(C)CCC1=O [CA, canthaxanthin] | – | – | – | > 50 | > 50 | –
CC1=C(/C=C/C(C)=C/C=C/C(C)=C/C=C/C=C(C)/C=C/C=C(C)/C=C/C2=C(C)C[C@@H](O)CC2(C)C)C(C)(C)CCC1 [βC, β-cryptoxanthin] | – | – | – | > 50 | > 50 | AUCi/AUC ratio for UGT1A1 (UGT1A1 [1]; calculated from Cmax 0.15 μM and Ki, fraction metabolized by UGT1A1 supposed to be 1): 1.012; Predicted increase of AUC of co-administered drug (UGT1A1 [1]; drugs that undergo 100% UGT1A1-mediated elimination): 1.2%; Cmax [2]: ~0.15 µM; Mode of inhibition of UGT1A1 (UGT1A1 [3]; Dixon plots / nonlinear regression): competitive inhibition; Ki (UGT1A1 [3]; read-out: Ki against UGT1A1-catalyzed β-estradiol-3-glucuronidation, β-estradiol 5, 10 and 20 μM, nonlinear regression): 12.2 ± 0.985 µM

More lines, main results first:

IC50 (UGT1A9) [µM] | Residual UGT1A9 enzyme activity (UGT1A9; human liver microsomes) | IC50 (UGT2B15) [µM] | SMILES | IC50 (UGT1A9; [4]) [µM] | IC50 (UGT2B15; [5]) [µM] | other results
> 50 | – | > 50 | CC1=C[C@H](O)CC(C)(C)[C@H]1/C=C/C(C)=C/C=C/C(C)=C/C=C/C=C(C)/C=C/C=C(C)/C=C/C1=C(C)C[C@@H](O)CC1(C)C [LU, lutein] | – | – | –
> 50 | greater than 80% | > 50 | CC1=C(/C=C/C(C)=C/C=C/C(C)=C/C=C/C=C(C)/C=C/C=C(C)/C=C/C2=C(C)C[C@@H](O)CC2(C)C)C(C)(C)C[C@H](O)C1 [ZE, zeaxanthin] | – | – | –
